From patent US9333197B2, “Apoptosis signal-regulating kinase inhibitor” (Gilead Sciences, Inc., priority 2012, dated 2016)
Where two headings read alike, the source gives them in different places.

Columns and labels:
Caco-2 cells = assay: Determination of CACO-2 efflux ratio / permeability; type: in vitro ADME; settings: for CACO A→B: apical to basolateral; for CACO B→A: basolateral to apical
Protocol: (§1) Caco-2 cells were maintained in Dulbecco's Modification of Eagle's Medium (DMEM) with sodium pyruvate, Glutmax supplemented with 1% Pen/Strep, 1% NEAA and 10% fetal bovine serum in an incubator set at 37° C., 90% humidity and 5% CO2. Caco-2 cells between passage 62 and 72 were seeded at 2100 cells/well and were grown to confluence over at least 21-days on 24 well PET (polyethylene-terephthalate) plates (BD Biosciences). The receiver well contained HBSS buffer (10 mM HEPES, 15 mM Glucose with pH adjusted to pH 6.5) supplemented with 1% BSA pH adjusted to pH 7.4. After an initial equilibration with transport buffer, TEER values were read to test membrane integrity. Buffers containing test compounds were added and 100 μl of solution was taken at 1 and 2 hrs from the receiver compartment. Removed buffer was replaced with fresh buffer and a correction is applied to all calculations for the removed material. The experiment was carried out in replicate. All samples were immediately collected into 400 μl 100% acetonitrile acid to precipitate protein and stabilize test compounds. Cells were dosed on the apical or basolateral side to determine forward (A to B) and reverse (B to A) permeability. Permeability through a cell free trans-well is also determined as a measure of cellular permeability through the membrane and non-specific binding. To test for non-specific binding and compound instability percent recovery is determined. Samples were analyzed by LC/MS/MS.
(§2) Vr and Vd is the volume in the receiver and donor compartment in cm^3, respectively. A is the area of the cell monolayer (0.33 cm^2). D0 and D120 is the measured donor concentration at the beginning and end of the experiment, respectively. R120 is the receiver concentration at the end of the experiment (120 minutes).

CYP3A4 = CYP3A4 (Homo sapiens (Human), UniProt P08684); assay: Cytochrome P450 inhibition IC50, CYP3A4 (midazolam and testosterone); type: in vitro ADME; settings: for IC50: comparative table, testosterone substrate, read-out: Cyp3A4 IC50 Testesterone (TST)
CYP3A4, sequence (P08684 whole entry, the tested form may be a part): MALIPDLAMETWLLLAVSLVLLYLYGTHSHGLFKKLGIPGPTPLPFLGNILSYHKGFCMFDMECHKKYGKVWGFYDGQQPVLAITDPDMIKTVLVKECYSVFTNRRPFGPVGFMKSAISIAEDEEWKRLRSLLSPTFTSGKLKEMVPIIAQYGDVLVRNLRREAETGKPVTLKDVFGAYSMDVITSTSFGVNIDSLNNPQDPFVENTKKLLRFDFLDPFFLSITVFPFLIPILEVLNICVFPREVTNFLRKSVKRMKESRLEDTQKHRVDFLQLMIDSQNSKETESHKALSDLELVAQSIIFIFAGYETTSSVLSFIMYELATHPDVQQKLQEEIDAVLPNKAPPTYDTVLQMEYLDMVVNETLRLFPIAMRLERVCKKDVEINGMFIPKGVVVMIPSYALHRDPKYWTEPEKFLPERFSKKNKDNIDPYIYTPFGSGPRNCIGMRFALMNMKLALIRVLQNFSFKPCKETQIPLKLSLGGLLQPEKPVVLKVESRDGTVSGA

[1] = Rat pharmacokinetics, 1 mg/kg IV infusion and 5.0 mg/kg PO; type: in vivo; settings: for clearance / Vd: 1 mg/kg IV infusion; for clearance: read-out: CL in rats (converted); for Vd: read-out: Vss in rats; for bioavailability: 5.0 mg/kg PO, read-out: oral bioavailability (% F) in rats
Protocol: For IV administration the test compound was formulated in 60:40 PEG 400:water with 1 equivalent HCl at 0.5 mg/mL.
For PO (oral) administration, the test compound was formulated in 5/75/10/10 ethanol/PG/solutol/water at 2.5 mg/mL.
IV and PO dosing groups each consisted of 3 male SD rats. […] The animals were fasted overnight prior to dose administration and up to 4 hr after dosing.
For the IV infusion group, the test compound was administered by intravenous infusion over 30 minutes. The rate of infusion was adjusted according to the body weight of each animal to deliver a dose of 1 mg/kg at 2 mL/kg. For the oral dosing group, the test article was administered by oral gavage at 2 mL/kg for a dose of 5.0 mg/kg.
Serial venous blood samples (approximately 0.4 mL each) were taken at specified time points after dosing from each animal. The blood samples were collected into Vacutainer™ tubes (Becton-Disckinson Corp, New Jersey, USA) containing EDTA as the anti-coagulant and were immediately placed on wet ice pending centrifugation for plasma.
An LC/MS/MS method was used to measure the concentration of test compound in plasma.
Non-compartmental pharmacokinetic analysis was performed on the plasma concentration-time data.

[2] = Determination of CACO-2 efflux ratio / permeability; type: in vitro ADME; settings: human, Caco-2, pH 7.4; read-out: Efflux ratio (B/A)/(A/B)
Protocol: as §1, §2

ASK1 = ASK1 (Rattus norvegicus, UniProt A0A8I6AEL0); assay: ASK1 293 cell-based assay (cellular EC50), AP-1:luciferase reporter
ASK1, sequence (A0A8I6AEL0 1-1381): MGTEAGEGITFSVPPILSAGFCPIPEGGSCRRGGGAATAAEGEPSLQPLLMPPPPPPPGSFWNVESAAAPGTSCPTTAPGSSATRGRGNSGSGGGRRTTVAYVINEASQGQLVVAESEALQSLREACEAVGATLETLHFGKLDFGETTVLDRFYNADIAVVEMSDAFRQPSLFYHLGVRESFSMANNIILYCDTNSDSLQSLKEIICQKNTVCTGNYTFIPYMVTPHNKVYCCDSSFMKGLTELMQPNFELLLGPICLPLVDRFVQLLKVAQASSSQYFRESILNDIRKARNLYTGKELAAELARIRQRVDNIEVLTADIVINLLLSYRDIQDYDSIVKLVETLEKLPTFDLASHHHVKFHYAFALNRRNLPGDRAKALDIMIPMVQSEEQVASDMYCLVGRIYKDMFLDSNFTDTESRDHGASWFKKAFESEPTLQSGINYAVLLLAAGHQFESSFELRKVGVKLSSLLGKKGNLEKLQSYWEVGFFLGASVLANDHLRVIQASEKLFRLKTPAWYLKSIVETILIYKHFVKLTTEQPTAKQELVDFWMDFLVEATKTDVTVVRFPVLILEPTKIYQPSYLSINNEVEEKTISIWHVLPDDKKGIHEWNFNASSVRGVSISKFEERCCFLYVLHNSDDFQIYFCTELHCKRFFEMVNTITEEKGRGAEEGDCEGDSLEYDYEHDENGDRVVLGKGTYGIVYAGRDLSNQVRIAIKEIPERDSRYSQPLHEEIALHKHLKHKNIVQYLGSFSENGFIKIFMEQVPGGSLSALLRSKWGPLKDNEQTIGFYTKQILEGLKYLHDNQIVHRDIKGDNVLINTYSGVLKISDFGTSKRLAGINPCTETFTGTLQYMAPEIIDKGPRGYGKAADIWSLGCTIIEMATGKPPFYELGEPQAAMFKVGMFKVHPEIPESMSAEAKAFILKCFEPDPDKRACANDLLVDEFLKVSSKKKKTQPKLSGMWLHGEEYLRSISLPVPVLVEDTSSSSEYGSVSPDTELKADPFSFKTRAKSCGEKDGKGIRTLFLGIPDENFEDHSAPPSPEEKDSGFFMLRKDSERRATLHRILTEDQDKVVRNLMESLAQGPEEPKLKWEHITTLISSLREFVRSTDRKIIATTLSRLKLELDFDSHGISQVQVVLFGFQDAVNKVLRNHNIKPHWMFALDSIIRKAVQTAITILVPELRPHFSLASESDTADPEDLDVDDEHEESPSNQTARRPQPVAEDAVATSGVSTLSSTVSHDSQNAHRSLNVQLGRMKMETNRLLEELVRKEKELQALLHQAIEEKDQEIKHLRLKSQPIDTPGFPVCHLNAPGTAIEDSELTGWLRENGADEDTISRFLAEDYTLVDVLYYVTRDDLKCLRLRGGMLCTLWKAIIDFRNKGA
Protocol: 2. […] Promega Steady-Glo Luciferase Assay System product insert. 3. Media Required Complete Growth Medium, “CGM” DMEM (MediaTech) 10% FBS 1% PSG 100 ug/mL HygromycinB Assay Medium, “AM” DMEM (Invitrogen) 25 mM HEPES 1 mM Sodium Pyruvate 1% PSG 4. Methods Maintenance:
Count cells and dilute to 1.5×10^5 cells per mL; add adenovirus such that there are 5 infectious forming units per cell.
Prime (20 to 30 mL) and plate cells in Greiner poly-D-Lysine coated 384-well plates at 1.2×10^4 cells per well using BioTek uFill (80 uL per well).
Immediately dose plates with 0.4 uL of compound dose series (in 100% DMSO) incubate 24 hours in humidified incubator (37° C., 5% CO2).
Process plates (per manufacturer's instructions) as follows:
Remove 60 uL of AM from assay wells
Add 20 uL per well Steady-Glo Firefly substrate, let sit for 10-20 minutes at room temperature
Acquire data on a fluorescence plate reader

[3] = 3 h, 2 μM, pH 7.4
Protocol: 1 mL Teflon dialysis cells from Harvard Apparatus (Holliston, Mass., USA) were used in these experiments. […] A nominal concentration of 2 μM of compound was spiked into 1 mL of plasma or 1 mL of cell culture media. The total volume of liquid on each side of the cell was 1 mL. After 3 hours equilibration in a 37° C. water bath, samples from each side of the cell were aliquoted into the appropriate vials containing either 1 mL of human plasma (cell culture media), or buffer. Sample vials were weighed and recorded. […] Samples were vortexed and centrifuged for 15 minutes at 12000 G. 200 μL of the supernatant was removed and placed into a new 96 well plate. An additional 200 μL of 1:1 ACN:water was added. The plate was then vortexed and subjected to LC-MS analysis. The percent unbound for an analyte in plasma was calculated using the following equations % Unbound=100(Cf/Ct) where Cf and Ct are the post-dialysis buffer and plasma concentrations, respectively.

[4] = Sprague-Dawley, rat, plasma, male SD rats

| SMILES | CACO A→B (Caco-2 cells) | CACO B→A (Caco-2 cells) | number of times compound of formula (I) shows an improvement over the indicated compound: Cyp3A4 IC50 (TST) (CYP3A4) [X] | IC50 (CYP3A4) [nM] | clearance [1, 4] [mL/min/kg] | Vd [1, 4] [L/kg] | bioavailability [1, 4] [%] | number of times compound of formula (I) shows an improvement over the indicated compound: % F in rats ([1]; rat, in vivo) [X] | number of times compound of formula (I) shows an improvement over the indicated compound: CL in rats ([1]; rat, in vivo) [X] | number of times compound of formula (I) shows an improvement over the indicated compound: t½ in rats ([1]; rat, in vivo) [X] | also measured |
| --- | --- | --- | --- | --- | --- | --- | --- | --- | --- | --- | --- |
| CC(C)n1cnnc1-c1cccc(NC(=O)c2cccc(-n3cnc(C4CC4)c3)c2)n1 [Compound A] | 3.1 | 18.5 | 10 | 1100 | 5 | 0.17 | 11 | 6.8 | 2.7 | 8.6 | t1/2 in rats ([1]; male SD rats): 0.59 h; number of times compound of formula (I) shows an improvement over the indicated compound: Vss in rats ([1]; rat, in vivo): 3.2 X |
| Cc1ccc(C(=O)Nc2cccc(-c3nncn3C3CC3)n2)cc1-n1cnc(C2CC2)c1 [Compound B] | 0.26 | 4 | 2.8 | 4000 | 6.5 | 0.54 | 50 | 1.5 | 3.6 | 3.9 | efflux ratio at 120 min [2]: 15.4; number of times compound of formula (I) shows an improvement over the indicated compound: EC50 (ASK1): 9 X; number of times compound of formula (I) shows an improvement over the indicated compound: PBadj EC50 (ASK1): 33 X; EC50 (ASK1; 293/AP1-Luc cells infected with adenovirus expressing kinase active ASK1, 24 hours): 18 nM; EC50 (ASK1; protein binding adjusted EC50, read-out: PBadj EC50): 563 nM; number of times compound of formula (I) shows an improvement over the indicated compound: Cyp3A4 IC50/PBAdj.EC50 (CYP3A4): 92 X; Cyp3A4 IC50/PBAdj.EC50 (CYP3A4; ratio of Cyp3A4 inhibition and protein binding adjusted EC50): 7; half-life ([1]; Sprague-Dawley, rat, plasma, male SD rats, read-out: t1/2 in rats (converted)): 1.3 h |
| Cc1cc(F)c(C(=O)Nc2cccc(-c3nncn3C(C)C)n2)cc1-n1cnc(C2CC2)c1 [compound of formula (I), 5-(4-cyclopropyl-1H-imidazol-1-yl)-N-(6-(4-isopropyl-4H-1,2,4-triazol-3-yl)pyridin-2-yl)-2-fluoro-4-methylbenzamide] |  |  |  |  |  |  |  |  |  |  | percent unbound measured in human plasma [3]: 11.94%; Vd ([1]; rat, plasma, male SD rats): 0.55 L/kg; bioavailability ([1]; rat, plasma, male SD rats): 75% |
